Active and inactive are the calls of the source. No cut-off for these calls is given here.
Key:
[1] = system: T47D; assay: Induction of apoptosis in human T47D cells assessed as caspase activation after 24 hrs; type: functional, cell-based
[2] = system: NCI-H1299; assay: Induction of apoptosis in human H1299 cells assessed as caspase activation after 24 hrs; type: functional, cell-based; details: NCI-H1299, 24 h
[3] = system: DLD-1; assay: Induction of apoptosis in human DLD1 cells assessed as caspase activation after 24 hrs; type: functional, cell-based; details: DLD-1, 24 h
[4] = system: Jurkat; assay: Induction of apoptosis in Jurkat cells assessed as PARP cleavage at 1 uM after 30 hrs; type: functional, cell-based; details: Homo sapiens
[5] = molecular target: Tubulin; assay: Displacement of [3H]colchicine from tubulin; type: protein-complex assay, Homo sapiens
[6] = system: T47D; assay: Antiproliferative activity against human T47D cells after 48 hrs by MTT assay; type: functional
[7] = system: DLD-1; assay: Antiproliferative activity against human DLD1 cells after 48 hrs by MTT assay; type: functional; details: DLD-1, 48 h
[8] = system: T47D; assay: Ratio of GI50 for human T47D cells to EC50 for human T47D cells; type: functional
[9] = system: DLD-1; assay: Ratio of GI50 for human DLD1 cells to EC50 for human DLD1 cells; type: functional
[10] = system: Jurkat; assay: Induction of caspase-mediated apoptosis in Jurkat cells at 0.1 uM after 24 hrs by nuclear fragmentation assay; type: functional, cell-based; details: Homo sapiens
[11] = system: Jurkat; assay: Induction of apoptosis in Jurkat cells assessed as PARP cleavage at 2.5 uM; type: functional, cell-based; details: Homo sapiens, TDE = time-dependent effect
[12] = system: T47D; assay: Induction of apoptosis in human T47D cells assessed as accumulation at subG1 phase at 0.1 uM after 24 hrs; type: functional
[13] = system: T47D; assay: Induction of apoptosis in human T47D cells assessed as accumulation at G1 phase at 0.1 uM after 24 hrs; type: functional
[14] = system: T47D; assay: Induction of apoptosis in human T47D cells assessed as accumulation at S phase at 0.1 uM after 24 hrs; type: functional
[15] = system: T47D; assay: Induction of apoptosis in human T47D cells assessed as accumulation at G2/M phase at 0.1 uM after 24 hrs; type: functional
[16] = system: T47D; assay: Induction of apoptosis in human T47D cells assessed as accumulation at subG1 phase at 0.1 uM after 48 hrs; type: functional
[17] = system: T47D; assay: Induction of apoptosis in human T47D cells assessed as accumulation at G1 phase at 0.1 uM after 48 hrs; type: functional
[18] = system: T47D; assay: Induction of apoptosis in human T47D cells assessed as accumulation at S phase at 0.1 uM after 48 hrs; type: functional
[19] = system: T47D; assay: Induction of apoptosis in human T47D cells assessed as accumulation at G2/M phase at 0.1 uM after 48 hrs; type: functional
[20] = molecular target: Tubulin; assay: Inhibition of tubulin polymerization; type: protein-complex assay, Homo sapiens

| EC50 [1] | EC50 [2] | EC50 [3] | SMILES | other results |
| --- | --- | --- | --- | --- |
| 0.065 µM | 0.2 µM | 0.081 µM | COc1cccc(C2C(C#N)=C(N)Oc3cc(N(C)C)ccc32)c1 (centres undefined) |  |
| 0.033 µM | 0.046 µM | 0.026 µM | CN(C)c1ccc2c(c1)OC(N)=C(C#N)C2c1cncc(Br)c1 (centres undefined) |  |
| 0.134 µM | 0.42 µM | 0.168 µM | Cc1cccc(C2C(C#N)=C(N)Oc3cc(N(C)C)ccc32)c1 (centres undefined) |  |
| 0.018 µM | 0.034 µM | 0.064 µM | COc1cc(C2C(C#N)=C(N)Oc3cc(N(C)C)ccc32)cc(I)c1OC (centres undefined) |  |
| 1.02 µM | 2.13 µM | 1.27 µM | COc1cccc(C2C(C#N)=C(N)Oc3cc(N(C)C)ccc32)c1OC (centres undefined) |  |
| 0.081 µM | 0.304 µM | 0.129 µM | CN(C)c1ccc2c(c1)OC(N)=C(C#N)C2c1cccc(F)c1 (centres undefined) |  |
| 0.03 µM | 0.163 µM | 0.075 µM | CC(=O)O[C@H]1C(=O)[C@@]2(C)[C@H]([C@H](OC(=O)c3ccccc3)[C@]3(O)C[C@H](OC(=O)[C@H](O)[C@@H](NC(=O)c4ccccc4)c4ccccc4)C(C)=C1C3(C)C)[C@]1(OC(C)=O)CO[C@@H]1C[C@@H]2O [PACLITAXEL] |  |
| > 10 µM | > 10 µM | > 10 µM | CN(C)c1ccc2c(c1)OC(N)=C(C#N)C2c1cccc(C(=O)O)c1 (centres undefined) |  |
| 1.6 µM | 2 µM | 2.6 µM | COc1ccc(C2C(C#N)=C(N)Oc3cc(N(C)C)ccc32)cc1 (centres undefined) |  |
| 0.244 µM | 0.622 µM | 0.438 µM | Cc1cccc(C2C(C#N)=C(N)Oc3cc(N(C)C)ccc32)n1 (centres undefined) |  |
| 0.041 µM | 0.144 µM | 0.064 µM | COc1cc(C2C(C#N)=C(N)Oc3cc(N(C)C)ccc32)cc(Br)c1O (centres undefined) |  |
| 0.28 µM | 0.56 µM | 0.33 µM | COc1ccccc1C1C(C#N)=C(N)Oc2cc(N(C)C)ccc21 (centres undefined) |  |
|  |  |  | CN[C@@H]1C[C@H]2O[C@@](C)([C@@H]1OC)n1c3ccccc3c3c4c(c5c6ccccc6n2c5c31)C(=O)NC4 | Activity [4]: Active |
| 3.16 µM | 3.74 µM | 5.09 µM | COc1ccc(C2C(C#N)=C(N)Oc3cc(N(C)C)ccc32)c(OC)c1OC (centres undefined) |  |
|  |  |  | COc1cc(C2C(C#N)=C(N)Oc3cc(N(C)C)ccc32)cc(Br)c1OC (centres undefined) | IC50 [5]: 8 µM |
| 0.381 µM | 0.855 µM | 0.78 µM | CN(C)c1ccc2c(c1)OC(N)=C(C#N)C2c1ccncc1 (centres undefined) |  |
| 0.245 µM | 0.754 µM | 0.293 µM | CN(C)c1ccc2c(c1)OC(N)=C(C#N)C2c1cc(Br)c2c(c1)OCO2 (centres undefined) | GI50 [6]: 0.605 µM; GI50 [7]: 0.735 µM; Ratio GI50/EC50 [8]: 2.5; Ratio GI50/EC50 [9]: 2.5 |
| 0.076 µM | 0.233 µM | 0.242 µM | CN(C)c1ccc2c(c1)OC(N)=C(C#N)C2c1cc(Cl)cc(Cl)c1 (centres undefined) |  |
| 0.031 µM | 0.063 µM | 0.125 µM | COc1cc(Br)cc(C2C(C#N)=C(N)Oc3cc(N(C)C)ccc32)c1 (centres undefined) |  |

| EC50 [1] | EC50 [2] | EC50 [3] | SMILES | other results |
| --- | --- | --- | --- | --- |
|  |  | 0.083 µM | COc1cc(C2C(C#N)=C(N)Oc3cc(N(C)C)ccc32)cc2c1OCO2 (centres undefined) | Activity [10]: Active; Activity [11]: tde; Activity [12]: 4.3%; Activity [13]: 43.5%; Activity [14]: 7.6%; Activity [15]: 44%; Activity [16]: 12%; Activity [17]: 11%; Activity [18]: 18.8%; Activity [19]: 57%; IC50 [20]: 0.4 µM |
| 0.063 µM | 0.215 µM | 0.082 µM | CN(C)c1ccc2c(c1)OC(N)=C(C#N)C2c1cccc(C#N)c1 (centres undefined) |  |
| 0.15 µM | 0.24 µM | 0.16 µM | CN(C)c1ccc2c(c1)OC(N)=C(C#N)C2c1cc(Br)cs1 (centres undefined) |  |
| > 10 µM | > 10 µM | > 10 µM | CCCCCCCCCCCCOc1cccc(C2C(C#N)=C(N)Oc3cc(N(C)C)ccc32)c1 (centres undefined) |  |
| 0.064 µM | 0.337 µM | 0.087 µM | CN(C)c1ccc2c(c1)OC(N)=C(C#N)C2c1cccc(Br)c1 (centres undefined) |  |
| 0.068 µM | 0.155 µM | 0.123 µM | CN(C)c1ccc2c(c1)OC(N)=C(C#N)C2c1cccnc1 (centres undefined) |  |
| 1.77 µM | 2.29 µM | 3.24 µM | COc1cc(OC)c(C2C(C#N)=C(N)Oc3cc(N(C)C)ccc32)cc1OC (centres undefined) |  |
| 0.465 µM | 1.43 µM | 0.959 µM | CN(C)c1ccc2c(c1)OC(N)=C(C#N)C2c1ccccn1 (centres undefined) |  |
| 0.112 µM | 0.514 µM | 0.158 µM | CN(C)c1ccc2c(c1)OC(N)=C(C#N)C2c1cccc(Cl)c1 (centres undefined) |  |
| 0.018 µM | 0.036 µM | 0.065 µM | COc1cc(C2C(C#N)=C(N)Oc3cc(N(C)C)ccc32)cc(Cl)c1OC (centres undefined) |  |
| 0.272 µM | 0.959 µM | 0.532 µM | CN(C)c1ccc2c(c1)OC(N)=C(C#N)C2c1cccc(O)c1 (centres undefined) |  |
| 0.2 µM | 0.3 µM | 0.27 µM | CN(C)c1ccc2c(c1)OC(N)=C(C#N)C2c1cccs1 (centres undefined) |  |
| 1.82 µM | 2.23 µM | 2.74 µM | CN(C)c1ccc2c(c1)OC(N)=C(C#N)C2c1cnc2ccccc2c1 (centres undefined) |  |
| 0.025 µM | 0.073 µM | 0.129 µM | CC[C@]1(O)C[C@@H]2CN(CCc3c([nH]c4ccccc34)[C@@](C(=O)OC)(c3cc4c(cc3OC)N(C)[C@H]3[C@@](O)(C(=O)OC)[C@H](OC(C)=O)[C@]5(CC)C=CCN6CC[C@]43[C@@H]65)C2)C1 [VINBLASTINE] |  |
| 0.43 µM | 1.08 µM | 0.59 µM | CN(C)c1ccc2c(c1)OC(N)=C(C#N)C2CCc1ccccc1 (centres undefined) |  |
| 0.011 µM | 0.027 µM | 0.018 µM | Cc1cncc(C2C(C#N)=C(N)Oc3cc(N(C)C)ccc32)c1 (centres undefined) |  |
| 0.45 µM | 1.14 µM | 0.457 µM | CN(C)c1ccc2c(c1)OC(N)=C(C#N)C2c1cccc(OC(F)(F)F)c1 (centres undefined) |  |
| 7.3 µM | 7.8 µM | 10.4 µM | COc1cc(C2(C)C(C#N)=C(N)Oc3cc(N(C)C)ccc32)cc(Br)c1OC (centres undefined) |  |
| 0.253 µM | 0.51 µM | 0.347 µM | COc1ccc(C2C(C#N)=C(N)Oc3cc(N(C)C)ccc32)cc1OC (centres undefined) |  |

| SMILES | EC50 [1] | EC50 [2] | EC50 [3] | other results |
| --- | --- | --- | --- | --- |
| COc1cc2c(c(OC)c1OC)-c1ccc(OC)c(=O)cc1[C@@H](NC(C)=O)CC2 [COLCHICINE] |  | 0.034 µM |  |  |

From ChEMBL document CHEMBL1149256, “Discovery of 4-aryl-4H-chromenes as a new series of apoptosis inducers using a cell- and caspase-based high-throughput screening assay. 1. Structure-activity relationships of the 4-aryl group” (J Med Chem, 2004)
